# Results published in patent EP3940071A1, “5-METHYLFOLATE PRODUCING MICROORGANISM” (Chifeng Pharmaceutical Co., Ltd, priority 2020, dated 2022).
# Test: Stability of folic acid in 0.1 M NaOH (HPLC)
# Format: physicochemical
# Settings: 25 °C, protected from light, 144 hours (6 days)
compound,measurement,value
"Nc1nc2ncc(CNc3ccc(C(=O)N[C@@H](CCC(=O)O)C(=O)O)cc3)nc2c(=O)[nH]1 [folic acid, pteroyl-L-glutamic acid]",decomposition of folic acid,did not undergo to decomposition
